# Reference: patent US6221864A, “Prophylactic or therapeutic agent for diseases attributable to infection with helicobacters” (priority 1997, dated 2001)
# Tests used:
# H. pylori = assay: MIC given in Table 1 beside eradication in H. pylori-infected Mongolian gerbils; assay type: cell-based; settings: Helicobacter pylori
# Procedure: Clinically isolated strains (18 strains) were cultured using 5% horse serum under microaerophilic conditions at 37° C. for 72 hours and diluted with Brucella broth to give a bacterial solution at about 10^6 cells/ml. The diluted bacterial solution was inoculated with a microplanter on an agar plate containing 2-fold dilution concentration series of test compound and cultured under 8% CO2 at 37° C. for 3 to 4 days. Thereafter, the minimum growth inhibitory concentration (MIC) was measured. MIC50 (minimum concentration to inhibit growth in 50% of the test strains) and MIC90 (minimum concentration to inhibit growth in 90% of the test strains) were calculated from the obtained values. To a male 7-week-old Mongolian gerbil after fasting for about 20 hours, was inoculated orally a culture broth of H. pylori ATCC 43504 Type strain upon 24 hours of culture. After administration of the culture broth, the Mongolian gerbil was fasted and deprived of water for about 4 hours, after which a normal solid feed and drinking water were given to Mongolian gerbils infected with H. pylori. Starting from 6 weeks after infection, the drug was orally administered twice a day for 7 days. […] The medium was incubated under CO2 and the colonies of H. pylori were counted. A case where colonies were not detected was evaluated as the case of bacterial eradication.
# [1] = system: H. pylori ATCC 43504 Type strain; assay: Bacterial eradication in H. pylori-infected Mongolian gerbils, alone or combined with famotidine, twice a day for 3 days; assay type: in vivo, Mongolian gerbil; settings: bid
# Procedure: To a male 7-week-old Mongolian gerbil after fasting for about 20 hours, was inoculated orally a culture broth of H. pylori ATCC 43504 Type strain upon 24 hours of culture. After administration of the culture broth, the Mongolian gerbil was fasted and deprived of water for about 4 hours, after which a normal solid feed and drinking water were given to Mongolian gerbils infected with H. pylori. Starting from 6 weeks after infection, the compound of the present invention and famotidine which is a histamine H2 antagonist were administered alone or in combination twice a day for 3 days. The compound of the present invention was administered orally and famotidine was subcutaneously administered immediately before administration of the compound of the present invention. After completion of the drug administration, Mongolian gerbils were sacrificed at day 3. The stomach was excised and incised along greater curvature and its content was removed. The stomach was homogenized in 10 ml of phosphate buffer--physiological saline. […] The medium was incubated under CO2 and the colonies of H. pylori were counted. A case where colonies were not detected was evaluated as the case of bacterial eradication. As a control, phosphate buffer--physiological saline was used.
# [2] = system: H. pylori clinically isolated strains (18 strains); assay: In vitro antibacterial activity against H. pylori clinically isolated strains (agar dilution MIC); assay type: cell-based; settings: Helicobacter pylori, 18 clinically isolated strains, agar plate, 8% CO2, 37° C., 3 to 4 days
# Procedure: Clinically isolated strains (18 strains) were cultured using 5% horse serum under microaerophilic conditions at 37° C. for 72 hours and diluted with Brucella broth to give a bacterial solution at about 10^6 cells/ml. The diluted bacterial solution was inoculated with a microplanter on an agar plate containing 2-fold dilution concentration series of test compound and cultured under 8% CO2 at 37° C. for 3 to 4 days. Thereafter, the minimum growth inhibitory concentration (MIC) was measured. MIC50 (minimum concentration to inhibit growth in 50% of the test strains) and MIC90 (minimum concentration to inhibit growth in 90% of the test strains) were calculated from the obtained values.
# [3] = system: H. pylori ATCC 43504 Type strain; assay: Bacterial eradication in H. pylori-infected Mongolian gerbils, drug orally twice a day for 7 days; assay type: in vivo, Mongolian gerbil; settings: bid, oral
# Procedure: To a male 7-week-old Mongolian gerbil after fasting for about 20 hours, was inoculated orally a culture broth of H. pylori ATCC 43504 Type strain upon 24 hours of culture. After administration of the culture broth, the Mongolian gerbil was fasted and deprived of water for about 4 hours, after which a normal solid feed and drinking water were given to Mongolian gerbils infected with H. pylori. Starting from 6 weeks after infection, the drug was orally administered twice a day for 7 days. After completion of the drug administration, Mongolian gerbils were sacrificed at day 3. The stomach was excised and incised along greater curvature, and its content was removed. The stomach was homogenized in 10 ml of phosphate buffer--physiological saline in a homogenizer. The homogenate was appropriately diluted with the same buffer and 0.1 ml of sample was plated onto H. pylori selective medium. The medium was incubated under CO2 and the colonies of H. pylori were counted. A case where colonies were not detected was evaluated as the case of bacterial eradication.
MIC (H. pylori),MIC50 ([2]; read-out: MIC50 (minimum concentration to inhibit growth in 50% of the test strains)),MIC90 ([2]; read-out: MIC90 (minimum concentration to inhibit growth in 90% of the test strains)),Compound,"Eradication rate ([1]; 0.3 mg/kg, oral)","Eradication rate ([1]; 1.0 mg/kg, oral)","Eradication rate ([1]; 3.0 mg/kg, oral)",visual and histopathological repair of inflammatory state [1],bacterial eradication effect when concurrently administered with famotidine (in words) ([1]; with famotidine subcutaneous),bacterial eradication effect by single administration (in words) ([1]; without famotidine),Eradication rate ([3]; 0.3 mg/kg),Eradication rate ([3]; 1.0 mg/kg),Eradication rate ([3]; 3.0 mg/kg),bacterial eradication of H. pylori (in words) [3],visual and histopathological repair of inflammatory state [3],Eradication rate ([3]; 10.0 mg/kg),"Eradication rate ([1]; 100 mg/kg, subcutaneous)"
0.025 µg/mL,0.025 µg/mL,0.05 µg/mL,"COc1c(N2CCO[C@@H](CN(C)C)C2)c(F)cc2c(=O)c(C(=O)O)cn(C3CC3)c12 [Y-34867, (S)-1-cyclopropyl-1,4-dihydro-7-[2-(N,N-dimethylaminomethyl)morpholino]-6-fluoro-8-methoxy-4-oxoquinoline-3-carboxylic acid]",0%,60%,100%,promoted,the effect is enforced,superior bacterial eradication effect,0%,80%,100%,evident bacterial eradication of H. pylori,promoted,,
0.025 µg/mL,,,"CC1(C)S[C@@H]2[C@H](NC(=O)[C@H](N)c3ccc(O)cc3)C(=O)N2[C@H]1C(=O)O [amoxicillin, reference compound]",,,,,,,,,0%,,,100%,
,,,"NC(N)=Nc1nc(CSCCC(N)=NS(N)(=O)=O)cs1 [famotidine, reference compound]",,,,,,,,,,,,,0%
